Measured values as given in patent US20260355318A1, “MOLECULAR MACHINES FOR TREATMENT OF CANCER, FUNGAL INFECTIONS, OR BACTERIAL INFECTIONS” (priority 2022, published 2026).

Tests used:
S. aureus = experiment: MIC, S. aureus; assay type: cell-based, Staphylococcus aureus; conditions: for MIC of MM: S. aureus; for MIC: Staphylococcus aureus, read-out: MIC of MM
Method in brief: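 Cell suspensions were exposed to compound at 0.3125-40 μM for 30 min in the dark, with agitation, at 30 or 37 °C depending on strain. Each sample was then irradiated with 405 nm light at 146 mW cm^−2 for 5 min (43.8 J cm^−2), inoculated into MHB and incubated overnight. MIC was read as the lowest concentration without visible growth, alongside non-irradiated controls.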

P. aeruginosa = experiment: Time-kill / light-dose experiments, P. aeruginosa; assay type: cell-based, Pseudomonas aeruginosa; conditions: for light dose for complete eradication: 0.625 to 5 μM of MM, 405 nm; for time to reduce cell number to limit of detection: 2×MIC, 146 mW cm^−2 405 nm
Experimental: (§1) Serial dilutions of irradiated cell suspensions were prepared in PBS. A volume of 10 AL of the appropriate serial dilutions was spot-plated onto LB agar plates. Following overnight incubation at 30 or 37 ° C, depending on the strain, bacterial viability was assessed as colony forming units (CFU) per mL. Results were expressed as log (N/NO) whereby N is the CFU mL^−1 at each irradiation time point and NO is the initial CFU mL^−1 of the corresponding sample. Only dilutions that yielded 10-100 colonies were counted.

S. epidermidis = experiment: MIC, S. epidermidis; assay type: cell-based; conditions: Staphylococcus epidermidis, read-out: MIC of MM
Experimental: The appropriate volume of an MM stock at 8 mM necessary to achieve a concentration ranging from 0.3125 to 40 μM was pipetted into a 2 mL microcentrifuge tube to which 1 mL of cell suspension prepared as previously described was added. Corresponding negative controls (DMSO only) were prepared in the same way. The mixture was gently mixed by pipetting and incubated in the dark at 30 or 37 ° C, depending on the strain, for 30 min with agitation (220 rpm). Afterward, MM- or DMSO-treated cells were dispensed in one well of a 24-well plate positioned in the center of the light beam (405 nm LED Light, Prizmatix, UHP—F-5-405) placed at the appropriate distance necessary to achieve the desired light intensity of 304 mW cm-2, 146 mW cm2 or 87 mW cm2, as measured with a handheld digital power meter console coupled to an S415C thermal power sensor head (Thorlabs, Newton, MA, USA). The temperature during irradiation was monitored using a thermocouple probe (Model SC-TT-K-30-36-PP; Omega Engineering, Inc., Stanford, CT, USA). Samples were agitated during irradiation. Dark controls were prepared as previously described except that no irradiation was provided. […]

[1] = system: human embryonic kidney cells (HEK); experiment: Toxicity to HEK cells (CellTiter-Glo); assay type: cell-based; conditions: HEK293, 5 min, 405 nm light 146 mW cm^−2, 5 min, read-out: IC50 (HEK viability)
Experimental: Biocompatibility of MM with primary NHDF and HEK293T cells was assessed using the CellTiter-Glo® Luminescent Cell Viability Assay (Promega), per the manufacturer's instructions. The MM concentrations that reduced cell viability by 50% (IC50) were identified and the therapeutic index was calculated as the ratio between the IC50 and the MIC at a light intensity of 146 mW cm^−2.

A. baumannii = experiment: Time-kill / light-dose experiments, A. baumannii; assay type: cell-based, Acinetobacter baumannii; conditions: highest concentration of MM (5 μM), 405 nm
Experimental: as §1

[2] = system: mitochondrial cytochrome c; experiment: Cytochrome c release; assay type: cell-based, Candida albicans; conditions: 2×MIC, p<0.05
Experimental: Cells were harvested for protoplast preparation by digestion with zymolyase 20 T (20 mg mL-1, US Biological Life Sciences, MA, USA) in 0.1 M potassium phosphate buffer (pH 6.0) containing 1 M sorbitol for 1 h at 30 °C. Mitochondrial cytochrome c was extracted and reduced with ascorbic acid (0.5 mg mL^−1) as previously described (Yun and Lee, 2016). The absorbance at 550 nm was determined on a Beckman Coulter DU 800 spectrophotometer (Fullerton, CA, USA). Cytochrome c levels were normalized to the protein content determined using the Pierce assay (Pierce™ BCA Protein Assay Kit, Thermo Fisher Scientific, MA, USA).

E. coli = experiment: Tetracycline uptake; assay type: cell-based, Escherichia coli; conditions: 0.5×MIC MM pre-treatment, vs DMSO
Experimental: The ability of pre-treatment with subinhibitory concentrations of MMs to potentiate antibiotic killing was further evaluated by monitoring the fluorescence of tetracycline uptake. […] Irradiated cell suspensions were then collected, and tetracycline (128 μg mL^−1 final concentration) was added. A volume of 100 μL per well of tetracycline amended cell suspension was transferred to a black 96-well plate and fluorescence was read every 5 min for 60 min at room temperature in a microplate reader (Ex: 405 nm, Em: 535 nm) (BioTek Instruments Inc, Winooski, VT, USA). Results were expressed as RFU corrected for fluorescence in the absence of cells.

[3] = system: Gram-negative and Gram-positive strains; experiment: MIC comparison Gram-positive versus Gram-negative strains (incl. MRSA); assay type: cell-based; conditions: FIG. 33C
Excerpt: The dotted line denotes the limit of detection of the method. Results are the means of at least 3 biological replicas #standard error of the mean. (FIG. 33B) MIC value of MM 1, MM 5, MM 6 in different Gram-negative and Gram-positive strains, including MRSA. Bars represent the results from at least 3 biological replicas. Unless otherwise noted, results for MM and DMSO are always reported in the presence of light. (FIG. 33C) Box and whiskers plot (median values with min/max range) of the MIC values of MM 1, MM 5, and MM 6 among the Gram-negative and Gram-positive strains examined in this study. * P<0.05; ns, not significant.
The appropriate volume of an MM stock at 8 mM necessary to achieve a concentration ranging from 0.3125 to 40 μM was pipetted into a 2 mL microcentrifuge tube to which 1 mL of cell suspension prepared as previously described was added. Corresponding negative controls (DMSO only) were prepared in the same way. […] Afterward, MM- or DMSO-treated cells were dispensed in one well of a 24-well plate positioned in the center of the light beam (405 nm LED Light, Prizmatix, UHP—F-5-405) placed at the appropriate distance necessary to achieve the desired light intensity of 304 mW cm-2, 146 mW cm2 or 87 mW cm2, as measured with a handheld digital power meter console coupled to an S415C thermal power sensor head (Thorlabs, Newton, MA, USA). […]

C[C@@H]1Cc2ccc3ccccc3c2/C1=C1\c2ccccc2Sc2cc(NCCN(C)C)ccc21 [MM 1, N^1N^1-dimethyl-N^2-(9-(2-methyl-2,3-dihydro-1H-cyclopenta[a]naphthalen-1-ylidene)-9H-thioxanthen-3-yl) ethane-1,2-diamine]
MIC of MM (S. aureus; 405 nm light): 0.156 µM | MIC (S. aureus): 0.156 µM | light dose for complete eradication (P. aeruginosa): 16 J cm^−2 | time to reduce cell number to limit of detection (P. aeruginosa): 3 min | MIC (S. epidermidis): 0.078 µM | IC50 [1]: 5 µM | light dose for complete eradication (A. baumannii): at least 40 J cm^−2 | mitochondrial cytochrome c levels [2]: significant reductions in mitochondrial cytochrome c levels | intracellular tetracycline fluorescence (E. coli): substantial increase in intracellular tetracycline fluorescence | median MIC in Gram-positive versus Gram-negative bacteria [3]: significant differences in the MIC between the two bacterial groups were not observed

C[C@@H]1Cc2ccc3ccccc3c2/C1=C1\c2ccccc2Sc2cc(NCCN)ccc21 (racemic) [MM 6, N^1-(9-(2-methyl-2,3-dihydro-1H-cyclopenta[a]naphthalen-1-ylidene)-9H-thioxanthen-3-yl)ethane-1,2-diamine]
MIC of MM (S. aureus; Table 9, 405 nm light 43.8 J cm^−2): 0.078 | MIC (S. aureus): 0.078 µM | light dose for complete eradication (P. aeruginosa): 16 J cm^−2 | time to reduce cell number to limit of detection (P. aeruginosa): 10 min | MIC (S. epidermidis): 0.078 µM | IC50 [1]: 5 µM | light dose for complete eradication (A. baumannii): at least 40 J cm^−2 | mitochondrial cytochrome c levels [2]: significant reductions in mitochondrial cytochrome c levels | intracellular tetracycline fluorescence (E. coli): substantial increase in intracellular tetracycline fluorescence | median MIC in Gram-positive versus Gram-negative bacteria [3]: significant differences in the MIC between the two bacterial groups were not observed
